Measurements reported in patent US20240041767A1, “Mitochondria-Enriched Extracellular Vesicles” (Duquesne University of the Holy Spirit, priority 2022, published 2024).

What was measured:
recipient hCMEC/D3 BECs = test: Uptake of MitoT-red-EVs into recipient hCMEC/D3 cells, flow cytometry; assay type: cell-based, human; conditions: cells pre-stained with 100 nM MitoT-red for 30 min
Experimental: Uptake of Mitotracker-labeled naïve and mito-EVs into the recipient hCMEC/D3 cells (isolation of mitochondria-labeled naïve and mito-EVs) hCMEC/D3 BECs and NIH/3T3 fibroblasts were cultured in T175 flasks to confluency. The complete growth medium was removed and cells were washed with 1× PBS. Cells were treated with 100 nM MitoTracker deep red (MitoT-red) diluted in serum-free medium for 30 min in a 37° C. humidified incubator, and following that, the cells were washed with 1× PBS. For naïve EVs, cells were incubated with serum-free medium for 48 h, whereas for mito-EVs, cells were incubated with serum-free medium containing 10 μM Resveratrol for 48 h. Post-incubation, the conditioned medium was collected into polystyrene centrifuge tubes. […] The EV protein content in MitoT-red-sEVs and MitoT-red-m/lEVs were determined using MicroBCA assay, and the samples were stored at −80° C. until further use.
Uptake of hCMEC/D3 BEC- and NIH/3T3 fibroblast-derived MitoT-red-EVs into recipient hCMEC/D3 cells using flow cytometry hCMEC/D3 BECs (P31) were seeded in a 48-well plate at a seeding density of 50,000 cells/well in complete growth medium and cultured for 48 hours in a humidified incubator at 37° C. […] For each sample, an aliquot of a 100 μL cell suspension was analyzed on an Attune N×T Flow cytometer and 10,000 events were recorded in FSC vs. SSC plots. […]

PGC-1α [1] = test: PGC-1α protein expression by western blotting in Resveratrol-treated hCMEC/D3 BECs; assay type: cell-based, human; conditions: hCMEC/D3 cells
Experimental: (§1) Measurement of PGC-1α expression using western blotting (Activation of hCMEC/D3 brain endothelial cells and NIH/3T3 fibroblasts with Resveratrol and preparation of cell lysate for western blotting) hCMEC/D3 brain endothelial cells (BECs) and NIH/3T3 fibroblasts were seeded in a 24-well plate at 100,000 cells/well-seeding density in complete growth medium and cultured for 48 hours in a humidified incubator at 37° C. The cells were treated with different concentrations of Resveratrol ranging from 0.1 to 50 μM in complete growth medium for 24 h. Untreated cells were incubated with a complete growth medium and used as the control for the treatment groups. Post-treatment, the cells were washed with 1× PBS, and the cell suspension was collected in centrifuge tubes. The cell suspension was centrifuged at 300×g for 10 min at 4° C., washed with 1× PBS, and the cell pellet was lysed with 1× RIPA buffer containing 3 μg/mL aprotinin. The total protein concentration in the cell lysates was measured using a BCA assay.
(§2) Detection of PGC1α protein expression in hCMEC/D3 BECs and NIH/3T3 fibroblasts using western blotting A 40 μg cell lysate of untreated and Resveratrol treated hCMEC/D3 BECs and NIH/3T3 fibroblasts were mixed with 4× laemmli buffer and distilled water. The mixture was heated at 95° C. for 5 min using a heating block (Thermo Scientific). Denatured samples and standard molecular weight markers (ladder, 250-25 kD) were separated on a 4-10% gradient sodium dodecyl sulfate polyacrylamide gel at 120 V for 90 min using a PowerPac Basic setup (Bio-Rad Laboratories, Inc.). The gel was washed with deionized water for 30 min, and the proteins were transferred from the gel to a 0.45 μm nitrocellulose membrane using a transfer assembly (Bio-Rad Laboratories, Inc.) at 75 V and 300 mA for 90 min. Following that, the membrane was washed with tris-buffered saline pH 7.4 containing 1% tween 20 (T-TBS) for 45 min and blocked with Intercept blocking buffer (Li-COR Inc., Lincoln, NE) for an hour at room temperature. […]

PGC-1α [2] = test: PGC-1α protein expression by western blotting in Resveratrol-treated NIH/3T3 fibroblasts; assay type: cell-based, mouse; conditions: NIH/3T3 cells, 24 h, vs untreated cells
Experimental: as §1, §2

## C[N+]1=C(/C=C/C=C/C=C2\N(Cc3ccc(CCl)cc3)c3ccccc3C2(C)C)C(C)(C)c2ccccc21.[Cl-] [MitoT-red]
Recipient hCMEC/D3 BECs
  MitoT+ve cells, positive control: about 77%

## Oc1ccc(C=Cc2cc(O)cc(O)c2)cc1 [Resveratrol]
PGC-1α [1]; Resveratrol 10 μM to 50 μM, 24 h
  PGC-1α and GAPDH protein expression: gradual and considerable decrease
PGC-1α [1]; Resveratrol 0.1 and 1 μM, 24 h, vs untreated cells
  PGC-1α protein band densities: slight increase
PGC-1α [1]; Resveratrol up to 1 μM, vs untreated cells
  increase in normalized PGC-1α protein expression: 5%
PGC-1α [2]; 10 μM Resveratrol
  normalized PGC-1α expression: statistically significant (p<0.01) increase
PGC-1α [2]; 50 μM Resveratrol
  PGC-1α expression: considerable (p=0.07) decrease
PGC-1α [2]; Resveratrol 0.1 to 50 μM
  normalized PGC-1α expression (densitometry): concentration-dependent increase in PGC-1α expression
